Assay [1] has as its system primary human fibroblasts derived from IPF patients (LL29 cells). Description: Inhibition of fibrotic process: αSMA staining in TGF-β1-treated primary human fibroblasts from IPF patients (LL29 cells). The class given is cell-based. The conditions noted are these: Fibroblast, 96 h, LL29 cells treated with TGF-β1 (20 ng/mL), 4 days, 11-point dose-response from 10 μM to 1.87 nM, read-out: Inhibition of fibrosis EC50. From the text: The above synthesized compounds were screened using primary human fibroblasts (derived from IPF patients) treated with TGF-β1 to determine their ability to inhibit the fibrotic process.
Primary human fibroblasts derived from IPF patients (LL29 cells) [^1Xiaoqiu Liu, et. al., “Fibrotic Lung Fibroblasts Show Blunted Inhibition by cAMP Due to Deficient cAMP Response Element-Binding Protein Phosphorylation”, Journal of Pharmacology and Experimental Therapeutics (2005), 315(2), 678-687; ^2Watts, K. L., et. al., “RhoA signaling modulates cyclin D1 expression in human lung fibroblasts; implications for idiopathic pulmonary fibrosis”, Respiratory Research (2006), 7(1), 88] were obtained from American Type Culture Collection (ATCC) and expanded in F12 medium supplemented with 15% Fetal Bovine Serum and Penicillin/Streptomycin.
Each compound was dissolved in DMSO as a 10 mM stock and used to prepare compound source plates. Serial dilution (1:2, 11-point dose-response curves from 10 μM to 1.87 nM) and compound transfer was performed using the ECHO 550 (Labcyte, Sunnyvale, Calif.) into 384-well clear bottom assay plates (Greiner Bio-One) with appropriate DMSO backfill for a final DMSO concentration of 0.1%. LL29 cells were plated at 1,500 cells/well in 80 μl/well F12 medium supplemented with 1% Fetal Bovine Serum. One hour after addition of the cells, TGF-β1 (Peprotech; 20 ng/mL) was added to the plates to induce fibrosis (ref. 1 and 2 above). Wells treated with TGF-β1 and containing DMSO were used as controls. Cells were incubated at 37° C. and 5% CO2 for 4 days. Following incubation for 4 days, SYTOX green nucleic acid stain (Life Technologies [Thermo Fisher Scientific]) was added to the wells at a final concentration of 1 uM and incubated at room temperature for 30 min. Cells were then fixed using 4% formaldehyde (Electron Microscopy Sciences), washed 3 times with PBS followed by blocking and permeabilization using 3% Bovine Serum Albumin (BSA; Sigma) and 0.3% Triton X-100 (Sigma) in PBS. Cells were then stained with antibody specific to α-smooth muscle actin (αSMA; Abcam) (ref. 1 and 2 above) in 3% Bovine Serum Albumin (BSA; Sigma) and 0.3% Triton X-100 (Sigma) in PBS, and incubated overnight at 4° C. Cells were then washed 3 times with PBS, followed by incubation with Alexa Flor-647 conjugated secondary antibody (Life Technologies [Thermo Fisher Scientific]) and DAPI at room temperature for 1 hour. Cells were then washed 3 times with PBS and plates were sealed for imaging. αSMA staining was imaged by excitation at 630 nm and emission at 665 nm and quantified using the Compartmental Analysis program on the CellInsight CX5 (Thermo Scientific). Dead or apoptotic cells were excluded from analysis based on positive SYTOX green staining. % of total cells positive for αSMA were counted in each well and normalized to the average of 11 wells treated with TGF-β1 on the same plate using Dotmatics' Studies Software. The normalized averages (fold change over untreated) of 3 replicate wells for each compound concentration were used to create dose-responses curves and EC50 values were calculated using non-linear regression curve fit in the Dotmatics' Studies Software. The EC50 values are reported.

For assay [2], the system named is Wnt activity (Wnt-responsive Sp5 promoter-luciferase reporter in SW480 cells). Description: Wnt activity screening assay: Sp5-Luc reporter gene in SW480 colon carcinoma cells. The conditions noted are these: Homo sapiens. The class given is cell-based. The essentials: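 IC50 values come from variable-slope four-parameter fits of luciferase signal normalized to DMSO wells. Stable Sp5-Luc reporter SW480 colon carcinoma cells were exposed to compounds in a 3-fold dilution series (source plates from 10 mM stock) for forty-two hours at 37 °C.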
On the technique in general: Reporter assays use an easily measured gene product as a stand-in for the process of interest.

The record followed here is patent US10052331B2, “3-(3H-imidazo[4,5-C]pyridin-2-yl)-1H-pyrazolo[3,4-C]pyridine and therapeutic uses thereof” (Samumed, LLC, priority 2014, dated 2018).

Structures are written as SMILES.

Turning to `c1ccc(-c2cncc3[nH]c(-c4n[nH]c5cnc(-c6cncc(CNCC7CCCC7)c6)cc45)nc23)nc1` [Compound 154, 1-Cyclopentyl-N-((5-(3-(7-(pyridin-2-yl)-3H-imidazo[4,5-c]pyridin-2-yl)-1H-pyrazolo[3,4-c]pyridin-5-yl)pyridin-3-yl)methyl)methanamine], in assay [1], the half-maximal effective concentration (EC50) stood at 649 nM. Besides, it took 945 nM to reach half-maximal inhibition in assay [2] (IC50).
For the compound `O=C(Nc1cncc(-c2cc3c(-c4nc5c(-c6cccs6)cncc5[nH]4)n[nH]c3cn2)c1)C1CC1` [Compound 305, N-(5-(3-(7-(Thiophen-2-yl)-3H-imidazo[4,5-c]pyridin-2-yl)-1H-pyrazolo[3,4-c]pyridin-5-yl)pyridin-3-yl)cyclopropanecarboxamide], in assay [1], the EC50 was above 10000 nM. In assay [2], this compound gave an IC50 of 35.1 nM.
Consider `CCCC(=O)Nc1cncc(-c2cc3c(-c4nc5c(-c6ccccc6F)cncc5[nH]4)n[nH]c3cn2)c1` [Compound 69, N-(5-(3-(7-(2-Fluorophenyl)-3H-imidazo[4,5-c]pyridin-2-yl)-1H-pyrazolo[3,4-c]pyridin-5-yl)pyridin-3-yl)butyramide], for which, in assay [1], the concentration for a half-maximal effect (EC50) turned out to be 44 nM. The concentration for half-maximal inhibition (IC50) in assay [2] amounted to 70.3 nM.
With `CCC(=O)Nc1cncc(-c2cc3c(-c4nc5c(-c6cccnc6)cncc5[nH]4)n[nH]c3cn2)c1` [Compound 79, N-(5-(3-(7-(Pyridin-3-yl)-3H-imidazo[4,5-c]pyridin-2-yl)-1H-pyrazolo[3,4-c]pyridin-5-yl)pyridin-3-yl)propionamide], the EC50 in assay [1] amounted to 18 nM. The same compound came in with a half-maximal inhibitory concentration (IC50) in assay [2] above 10000 nM.
Take `CS(=O)(=O)NCc1cc(F)cc(-c2cncc3[nH]c(-c4n[nH]c5cnc(-c6cncc(NC(=O)c7ccccc7)c6)cc45)nc23)c1` [Compound 401, N-(5-(3-(7-(3-Fluoro-5-(methylsulfonamidomethyl)phenyl)-3H-imidazo[4,5-c]pyridin-2-yl)-1H-pyrazolo[3,4-c]pyridin-5-yl)pyridin-3-yl)benzamide]: the EC50 in assay [1] is at least 9990 nM. Moreover, the IC50 in assay [2] was 774 nM.
Take `CCCCC(=O)Nc1cncc(-c2cc3c(-c4nc5c(-c6cc(F)cc(NCCN(C)C)c6)cncc5[nH]4)n[nH]c3cn2)c1` [Compound 434, N-(5-(3-(7-(3-((2-(Dimethylamino)ethyl)amino)-5-fluorophenyl)-3H-imidazo[4,5-c]pyridin-2-yl)-1H-pyrazolo[3,4-c]pyridin-5-yl)pyridin-3-yl)pentanamide]: the EC50 in assay [1] came to 8260 nM. This compound had an IC50 in assay [2] of 227 nM.
As to `CN1CCN(c2cncc3[nH]c(-c4n[nH]c5cnc(-c6cncnc6)cc45)nc23)CC1` [Compound 234, 3-(7-(4-methylpiperazin-1-yl)-3H-imidazo[4,5-c]pyridin-2-yl)-5-(pyrimidin-5-yl)-1H-pyrazolo[3,4-c]pyridine], the EC50 in assay [1] stood at 966 nM. Half-maximal inhibition in assay [2] (IC50) was put at 379 nM.
As to `CN(C)Cc1cncc(-c2cc3c(-c4nc5c(-c6cccc(F)c6)cncc5[nH]4)n[nH]c3cn2)c1` [Compound 13, 1-(5-(3-(7-(3-Fluorophenyl)-3H-imidazo[4,5-c]pyridin-2-yl)-1H-pyrazolo[3,4-c]pyridin-5-yl)pyridin-3-yl)-N,N-dimethylmethanamine], the EC50 in assay [1] is at most 9 nM. This compound came in with a half-maximal inhibitory concentration (IC50) in assay [2] of 80.1 nM.
For `CN1CCN(c2cncc3[nH]c(-c4n[nH]c5cnc(-c6cncc(NC(=O)C7CCCC7)c6)cc45)nc23)CC1` [Compound 229, N-(5-(3-(7-(4-Methylpiperazin-1-yl)-3H-imidazo[4,5-c]pyridin-2-yl)-1H-pyrazolo[3,4-c]pyridin-5-yl)pyridin-3-yl)cyclopentanecarboxamide], the concentration giving a half-maximal response (EC50) in assay [1] is at least 9990 nM. In assay [2], this compound returned an IC50 of 440 nM.
As for `CN(C)Cc1cncc(-c2cc3c(-c4nc5c(-c6cccs6)cncc5[nH]4)n[nH]c3cn2)c1` [Compound 299, N,N-Dimethyl-1-(5-(3-(7-(thiophen-2-yl)-3H-imidazo[4,5-c]pyridin-2-yl)-1H-pyrazolo[3,4-c]pyridin-5-yl)pyridin-3-yl)methanamine], the 50% effective concentration (EC50) in assay [1] was at most 9 nM. Also, the IC50 in assay [2] is 588 nM.
In the case of `c1ccc(CNCc2cncc(-c3cc4c(-c5nc6c(-c7cccnc7)cncc6[nH]5)n[nH]c4cn3)c2)cc1` [Compound 101, N-Benzyl-1-(5-(3-(7-(pyridin-3-yl)-3H-imidazo[4,5-c]pyridin-2-yl)-1H-pyrazolo[3,4-c]pyridin-5-yl)pyridin-3-yl)methanamine], in assay [1], the EC50 is at least 9990 nM. For the same compound, the midpoint of inhibition in assay [2], the IC50, lay at 294 nM.
The matching figures for `CN(C)c1cncc(-c2cc3c(-c4nc5c(-c6cccc(F)c6)cncc5[nH]4)n[nH]c3cn2)c1` [Compound 7, 5-(3-(7-(3-Fluorophenyl)-3H-imidazo[4,5-c]pyridin-2-yl)-1H-pyrazolo[3,4-c]pyridin-5-yl)-N,N-dimethylpyridin-3-amine]: at most 9 nM and 71.8 nM.
`Cc1ncc(-c2cc3c(-c4nc5c(-c6cccc(F)c6)cncc5[nH]4)n[nH]c3cn2)n1C` [Compound 889, 5-(1,2-Dimethyl-1H-imidazol-5-yl)-3-(7-(3-fluorophenyl)-3H-imidazo[4,5-c]pyridin-2-yl)-1H-pyrazolo[3,4-c]pyridine]: the EC50 in assay [1] is 46 nM. In assay [2], this compound registered a concentration for half-maximal inhibition (IC50) of 552 nM.
`CCCC(=O)Nc1cncc(-c2cc3c(-c4nc5c(-c6ccc(C)s6)cncc5[nH]4)n[nH]c3cn2)c1` [Compound 355, N-(5-(3-(7-(5-Methylthiophen-2-yl)-3H-imidazo[4,5-c]pyridin-2-yl)-1H-pyrazolo[3,4-c]pyridin-5-yl)pyridin-3-yl)butyramide]: the EC50 in assay [1] was 148 nM. The IC50 in assay [2] amounted to 6.5 nM.
In the case of `CN(C)Cc1cncc(-c2cc3c(-c4nc5c(N6CCCCC6)cncc5[nH]4)n[nH]c3cn2)c1` [Compound 169, N,N-Dimethyl-1-(5-(3-(7-(piperidin-1-yl)-3H-imidazo[4,5-c]pyridin-2-yl)-1H-pyrazolo[3,4-c]pyridin-5-yl)pyridin-3-yl)methanamine], in assay [1], the 50% effective concentration (EC50) came out at 74 nM. The IC50 in assay [2] worked out at 122 nM.
Turning to `CC(C)CC(=O)Nc1cncc(-c2cc3c(-c4nc5c(-c6cc(O)cc(F)c6)cncc5[nH]4)n[nH]c3cn2)c1` [Compound 1280, N-(5-(3-(7-(3-Fluoro-5-hydroxyphenyl)-3H-imidazo[4,5-c]pyridin-2-yl)-1H-pyrazolo[3,4-c]pyridin-5-yl)pyridin-3-yl)-3-methylbutanamide], in assay [1], the concentration giving a half-maximal response (EC50) is at most 9 nM. Moreover, the half-maximal inhibitory concentration (IC50) in assay [2] was above 10000 nM.
`O=C(Nc1cncc(-c2cc3c(-c4nc5c(N6CCCCC6)cncc5[nH]4)n[nH]c3cn2)c1)C1CC1` [Compound 175, N-(5-(3-(7-(Piperidin-1-yl)-3H-imidazo[4,5-c]pyridin-2-yl)-1H-pyrazolo[3,4-c]pyridin-5-yl)pyridin-3-yl)cyclopropanecarboxamide]: the EC50 in assay [1] was at most 9 nM. This compound also came in with a half-inhibitory concentration (IC50) in assay [2] of 820 nM.
As for `CN(C)c1cncc(-c2cc3c(-c4nc5c(N6CCCCC6)cncc5[nH]4)n[nH]c3cn2)c1` [Compound 163, N,N-Dimethyl-5-(3-(7-(piperidin-1-yl)-3H-imidazo[4,5-c]pyridin-2-yl)-1H-pyrazolo[3,4-c]pyridin-5-yl)pyridin-3-amine], the 50% effective concentration (EC50) in assay [1] is 38 nM. Besides, the concentration for half-maximal inhibition (IC50) in assay [2] amounted to 310 nM.
As for `CCNCc1cncc(-c2cc3c(-c4nc5c(-c6ccc(C)s6)cncc5[nH]4)n[nH]c3cn2)c1` [Compound 344, N-((5-(3-(7-(5-Methylthiophen-2-yl)-3H-imidazo[4,5-c]pyridin-2-yl)-1H-pyrazolo[3,4-c]pyridin-5-yl)pyridin-3-yl)methyl)ethanamine], in assay [1], the concentration giving a half-maximal response (EC50) worked out at 60 nM. Moreover, the 50% inhibitory concentration (IC50) in assay [2] is 25.4 nM.
With `Fc1cccc(-c2cncc3[nH]c(-c4n[nH]c5cnc(C6CCNCC6)cc45)nc23)c1` [Compound 885, 3-(7-(3-Fluorophenyl)-3H-imidazo[4,5-c]pyridin-2-yl)-5-(piperidin-4-yl)-1H-pyrazolo[3,4-c]pyridine], the concentration for a half-maximal effect (EC50) in assay [1] is at least 9990 nM. Also, the IC50 in assay [2] was above 10000 nM.

In general, EC50 refers to the concentration needed to bring the measured effect to its halfway point. A word on the IC50: it is the concentration that gives 50% inhibition. A low value points to higher potency.
